pIC50: −log10 of the molar value.
Molecular target: T1, Human TRPA1 expressing CHO cells (Homo sapiens, UniProt O75762)
T1 construct: expressed in transfected cells; host or cells: CHO cells (under G-418 selection)
Assay: 45Calcium uptake assay: inhibition of AITC induced cellular uptake of radioactive calcium
Type: cell-based
Settings: AITC 30 μM, human TRPA1 CHO cells; for inhibition at 1 µM: 1.0 μM test compound, read-out: Percentage inhibition at 1.0 μM; for inhibition at 10 µM: 10.0 μM test compound, read-out: Percentage inhibition at 10.0 μM; for pIC50: read-out: IC50 value (range)
Experimental: The illustrative examples of the present invention are screened for TRPA1 activity according to a modified procedure described in (a) Tóth, A. et al. Life Sciences (2003), 73, 487-498. ([…]. et al. Proc. Natl. Acad. Sci. U.S.A., (2007), 104, 13525-13530. The screening of the compounds can be carried out by other methods and procedures known to persons skilled in the art. Screening for TRPA1 Antagonist Using the ^45Calcium Uptake Assay The inhibition of TRPA1 receptor activation was measured as inhibition of allyl isothiocyanate (AITC) induced cellular uptake of radioactive calcium. […] Final concentration of DMSO in the reaction was 0.5% (v/v). […] Cells were seeded 24 h prior to the assay in 96 well plates so as to get 50,000 cells per well on the day of experiment. Cells were treated with test compounds for 10 min followed by addition of AITC at a final concentration of 30 μM and 5 μCi/ml ^45Ca^+2 for 3 min. […] Radioactivity in the lysate was measured in Packard Top count after addition of liquid scintillant. Concentration response curves were plotted as a % of maximal response obtained in the absence of test antagonist. IC50 value was calculated from concentration response curve by nonlinear regression analysis using GraphPad PRISM software.

T1 sequence (O75762 whole entry): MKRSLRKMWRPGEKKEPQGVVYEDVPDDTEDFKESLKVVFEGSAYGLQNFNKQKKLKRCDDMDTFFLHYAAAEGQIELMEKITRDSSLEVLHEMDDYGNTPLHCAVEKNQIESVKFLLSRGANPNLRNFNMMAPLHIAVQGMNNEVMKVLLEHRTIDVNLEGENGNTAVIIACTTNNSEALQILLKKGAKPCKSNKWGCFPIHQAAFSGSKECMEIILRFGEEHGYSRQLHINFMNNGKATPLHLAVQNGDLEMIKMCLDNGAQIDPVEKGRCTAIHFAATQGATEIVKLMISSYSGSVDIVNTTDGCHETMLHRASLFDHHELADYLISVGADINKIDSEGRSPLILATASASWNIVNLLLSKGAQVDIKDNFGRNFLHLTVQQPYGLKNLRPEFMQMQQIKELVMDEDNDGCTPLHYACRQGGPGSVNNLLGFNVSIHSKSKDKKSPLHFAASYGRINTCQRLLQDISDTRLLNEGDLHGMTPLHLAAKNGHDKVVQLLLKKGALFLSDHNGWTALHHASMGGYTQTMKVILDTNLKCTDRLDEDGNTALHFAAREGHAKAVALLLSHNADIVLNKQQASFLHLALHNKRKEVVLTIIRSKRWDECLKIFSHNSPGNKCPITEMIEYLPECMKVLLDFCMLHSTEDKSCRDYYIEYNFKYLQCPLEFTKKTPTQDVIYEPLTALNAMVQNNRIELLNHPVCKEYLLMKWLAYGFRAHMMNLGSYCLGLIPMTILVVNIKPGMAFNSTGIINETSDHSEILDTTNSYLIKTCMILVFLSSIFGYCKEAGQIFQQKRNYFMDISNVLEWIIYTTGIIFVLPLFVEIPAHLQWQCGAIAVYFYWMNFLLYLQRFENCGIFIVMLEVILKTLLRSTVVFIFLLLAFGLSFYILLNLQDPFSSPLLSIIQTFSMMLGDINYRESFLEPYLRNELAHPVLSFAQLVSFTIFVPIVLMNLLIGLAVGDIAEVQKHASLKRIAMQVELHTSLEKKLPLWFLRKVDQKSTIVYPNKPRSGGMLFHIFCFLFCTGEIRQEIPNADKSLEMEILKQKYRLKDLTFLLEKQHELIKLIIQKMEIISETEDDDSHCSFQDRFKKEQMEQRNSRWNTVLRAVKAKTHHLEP

| SMILES | inhibition at 1 µM | inhibition at 10 µM | pIC50 |
| --- | --- | --- | --- |
| Cc1ccc(Oc2ccc(NC(=O)Cc3cccc4c3c(=O)n(C)c(=O)n4C)cc2)cc1 [Example 3, N1-[4-(4-Methylphenoxy)phenyl]-2-(1,3-dimethyl-2,4-dioxo-1,2,3,4-tetrahydro-5-quinazolinyl)acetamide] | 7.98% | 31.6% | – |
| Cn1c(=O)c2c(CC(=O)Nc3cccc(-c4ccc(Cl)cc4)n3)cccc2n(C)c1=O [Example 4, N1-[6-(4-chlorophenyl)-2-pyridyl]-2-(1,3-dimethyl-2,4-dioxo-1,2,3,4-tetrahydro-5-quinazolinyl)acetamide] | 60.7% | 95.2% | – |
| Cn1c(=O)c2c(CC(=O)Nc3cccc(-c4ccc(C(F)(F)F)cc4)n3)cccc2n(C)c1=O [Example 6, N1-[6-(4-Trifluoromethylphenyl)-2-pyridyl]-2-(1,3-dimethyl-2,4-dioxo-1,2,3,4-tetrahydro-5-quinazolinyl)acetamide] | 71.3% | 88.2% | – |
| Cn1c(=O)c2c(CC(=O)Nc3nc(-c4ccccc4)cs3)cccc2n(C)c1=O [Example 8, N1-[4-phenyl-1,3-thiazol-2-yl]-2-(1,3-dimethyl-2,4-dioxo-1,2,3,4-tetrahydro-5-quinazolinyl)acetamide] | 52.9% | 79.9% | – |
| Cn1c(=O)c2c(CC(=O)Nc3nc(-c4ccc(F)cc4)cs3)cccc2n(C)c1=O [Example 9, N1-[4-(4-Fluorophenyl)-1,3-thiazol-2yl]-2-(1,3-dimethyl-2,4-dioxo-1,2,3,4-tetrahydro-5-quinazolinyl)acetamide] | 30.8% | 43.8% | – |
| Cn1c(=O)c2c(CC(=O)Nc3nc(-c4ccc(C(F)(F)F)cc4)cs3)cccc2n(C)c1=O [Example 14, N1-[4-(4-Trifluromethylphenyl)-1,3-thiazol-2yl]-2-(1,3-dimethyl-2,4-dioxo-1,2,3,4-tetrahydro-5-quinazolinyl)acetamide] | 97.9% | 99.1% | > 7.30 |
| Cn1c(=O)c2c(CC(=O)Nc3nc(-c4cccc(OC(F)(F)F)c4)cs3)cccc2n(C)c1=O [Example 16, N1-[4-(3-Trifluoromethoxyphenyl)-1,3-thiazol-2-yl]-2-(1,3-dimethyl-2,4-dioxo-1,2,3,4-tetrahydro-5-quinazolinyl)acetamide] | 95.6% | 99.7% | > 7.30 |
| CC(C)CCOc1ccc(-c2csc(NC(=O)Cc3cccc4c3c(=O)n(C)c(=O)n4C)n2)cc1 [Example 19, N1-[4-(4-(3-Methylbutoxy)phenyl)-1,3-thiazol-2-yl]-2-(1,3-dimethyl-2,4-dioxo-1,2,3,4-tetrahydro-5-quinazolinyl)acetamide] | 93% | 97.9% | 7.00 to 7.30 |
| CCc1ccc(-c2csc(NC(=O)Cc3cccc4c3c(=O)n(C)c(=O)n4C)n2)cc1 [Example 23] | 96.2% | 96.9% | 7.00 to 7.30 |
| Cc1ccc(-c2csc(NC(=O)Cc3cccc4c3c(=O)n(C)c(=O)n4C)n2)cc1 [Example 24, N1-[4-(4-Methylphenyl)-1,3-thiazol-2yl]-2-(1,3-dimethyl-2,4-dioxo-1,2,3,4-tetrahydro-5-quinazolinyl)acetamide] | 83.9% | 96.8% | 7.00 to 7.30 |
| Cn1c(=O)n(CC2CC2)c(=O)c2c(CC(=O)Nc3nc(-c4ccc(C(C)(C)C)cc4)cs3)cccc21 [Example 27, N1-[4-(4-tert-Butylphenyl)-1,3-thiazol-2-yl]-2-(1-methyl-3-cyclopropylmethyl-2,4-dioxo-1,2,3,4-tetrahydro-5-quinazolinyl)acetamide] | 17.2% | 29.6% | – |
| CCOC(=O)n1c(=O)[nH]c2cccc(CC(=O)Nc3nc(-c4ccc(Cl)cc4)cs3)c2c1=O [Example 28] | 2.8% | 6.54% | – |
| O=C(Cc1cccc2[nH]c(=O)[nH]c(=O)c12)Nc1nc(-c2ccc(Cl)cc2)cs1 [Example 29, N1-[4-(4-Chlorophenyl)-1,3-thiazol-2-yl]-2-(2,4-dioxo-1,2,3,4-tetrahydro-5-quinazolinyl)acetamide] | 20.9% | 47.7% | – |

Other lines, results leading:

| inhibition at 1 µM | inhibition at 10 µM | pIC50 | SMILES |
| --- | --- | --- | --- |
| 25.3% | 50.8% | – | Cn1c(=O)c2c(CC(=O)Nc3ccc(-c4ccc(Br)cc4)cc3)cccc2n(C)c1=O [Example 2, N1-[4-(4-Bromophenyl)phenyl]-2-(1,3-dimethyl-2,4-dioxo-1,2,3,4-tetrahydro-5-quinazolinyl)acetamide] |
| 52.2% | 71.5% | – | Cn1c(=O)c2c(CC(=O)Nc3ccc(-c4ccc(Cl)cc4)cn3)cccc2n(C)c1=O [Example 5, N1-[5-(4-chlorophenyl)-2-pyridyl]-2-(1,3-dimethyl-2,4-dioxo-1,2,3,4-tetrahydro-5-quinazolinyl)acetamide] |
| 62.2% | 60.5% | – | Cn1c(=O)c2c(CC(=O)Nc3nc(C4CCCCC4)cs3)cccc2n(C)c1=O [Example 7, N1-[4-(4-Cyclohexyl)-1,3-thiazol-2yl]-2-(1,3-dimethyl-2,4-dioxo-1,2,3,4-tetrahydro-5-quinazolinyl)acetamide] |
| 95.5% | 99.1% | < 7.00 | Cn1c(=O)c2c(CC(=O)Nc3nc(-c4cccc(Cl)c4)cs3)cccc2n(C)c1=O [Example 11, N1-[4-(3-Chlorophenyl)-1,3-thiazol-2yl]-2-(1,3-dimethyl-2,4-dioxo-1,2,3,4-tetrahydro-5-quinazolinyl)acetamide] |
| 98.7% | 99.2% | 7.00 to 7.30 | Cn1c(=O)c2c(CC(=O)Nc3nc(-c4ccc(Br)cc4)cs3)cccc2n(C)c1=O [Example 12] |
| 79.2% | 94.7% | 7.00 to 7.30 | Cn1c(=O)c2c(CC(=O)Nc3nc(-c4ccc(I)cc4)cs3)cccc2n(C)c1=O [Example 13, N1-[4-(4-Iodophenyl)-1,3-thiazol-2yl]-2-(1,3-dimethyl-2,4-dioxo-1,2,3,4-tetrahydro-5-quinazolinyl)acetamide] |
| 30% | 75.9% | – | COc1ccc(-c2csc(NC(=O)Cc3cccc4c3c(=O)n(C)c(=O)n4C)n2)cc1 [Example 17, N1-[4-(4-Methoxyphenyl)-1,3-thiazol-2-yl]-2-(1,3-dimethyl-2,4-dioxo-1,2,3,4-tetrahydro-5-quinazolinyl)acetamide] |
| 79.3% | 88.3% | > 7.30 | Cn1c(=O)c2c(CC(=O)Nc3nc(-c4ccc(C5CCCCC5)cc4)cs3)cccc2n(C)c1=O [Example 18, N1-[4-(4-Cyclohexylphenyl)-1,3-thiazol-2yl]-2-(1,3-dimethyl-2,4-dioxo-1,2,3,4-tetrahydro-5-quinazolinyl)acetamide] |
| 98.9% | 99.8% | 7.00 to 7.30 | Cn1c(=O)c2c(CC(=O)Nc3nc(-c4ccc(C(C)(C)C)cc4)cs3)cccc2n(C)c1=O [Example 20, N1-[4-(4-tert-Butylphenyl)-1,3-thiazol-2-yl]-2-(1,3-dimethyl-2,4-dioxo-1,2,3,4-tetrahydro-5-quinazolinyl)acetamide] |
| 95.7% | 99.7% | > 7.30 | CC(C)Cc1ccc(-c2csc(NC(=O)Cc3cccc4c3c(=O)n(C)c(=O)n4C)n2)cc1 [Example 21] |
| 95.3% | 98% | 7.00 to 7.30 | CC(C)c1ccc(-c2csc(NC(=O)Cc3cccc4c3c(=O)n(C)c(=O)n4C)n2)cc1 [Example 22, N1-[4-(4-isopropylphenyl)-1,3-thiazol-2-yl]-2-(1,3-dimethyl-2,4-dioxo-1,2,3,4-tetrahydro-5-quinazolinyl)acetamide] |
| 20.4% | 30.8% | – | CCn1c(=O)c2c(CC(=O)Nc3nc(-c4ccc(Cl)cc4)cs3)cccc2n(CC)c1=O [Example 25, N1-[4-(4-Chlorophenyl)-1,3-thiazol-2-yl]-2-(1,3-diethyl-2,4-dioxo-1,2,3,4-tetrahydro-5-quinazolinyl)acetamide] |
| 13.6% | 5.39% | – | CCCn1c(=O)c2c(CC(=O)Nc3nc(-c4cccc(C(F)(F)F)c4)cs3)cccc2n(CCC)c1=O [Example 26, N1-[4-(3-Trifluoromethylphenyl)-1,3-thiazo-2-yl]-2-(1,3-dipropyl-2,4-dioxo-1,2,3,4-tetrahydro-5-quinazolinyl)acetamide] |
| 37.3% | 91% | – | Cc1sc(NC(=O)Cc2cccc3c2c(=O)n(C)c(=O)n3C)nc1-c1ccc(Cl)cc1 [Example 30, N1-[4-(4-Chlorophenyl)-5-methyl-1,3-thiazolyl]-2-(1,3-dimethyl-2,4-dioxo-1,2,3,4-tetrahydro-5-quinazolinyl)acetamide] |
| 90.1% | 97.9% | > 7.30 | Cn1c(=O)c2c(CC(=O)Nc3nc(-c4ccc(F)cc4F)cs3)cccc2n(C)c1=O [Example 31, N1-[4-(2,4-Difluorophenyl)-1,3-thiazol-2-yl]-2-(1,3-dimethyl-2,4-dioxo-1,2,3,4-tetrahydro-5-quinazolinyl)acetamide] |
